#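 Briefly, cells in 96-well plates were exposed to five compound concentrations for 48 h, and endpoints were estimated by linear interpolation. Abbreviation: GI50, concentration required for 50% inhibition of growth.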 The source made the active and inactive calls. Cut-off read from the data, not from the text of the source: active = GI50 up to about 1.1 µM and inactive = higher.
# Legend:
# Test in all cases: inhibition of tumour cell growth, NCI panel, 48 h
# 786-0 = system: 786-0
# BT-549 = system: BT-549
# EKVX = system: EKVX
# HCT-116 = system: HCT-116
# HCT-15 = system: HCT-15
# HOP-92 = system: HOP-92
# Hs-578T = system: Hs-578T
# K562 = system: K562
# KM12 = system: KM12
# NCI-H522 = system: NCI-H522
# OVCAR-5 = system: OVCAR-5
# PC-3 = system: PC-3
# RPMI-8226 = system: RPMI-8226
# RXF 393 = system: RXF 393
# SK-MEL-28 = system: SK-MEL-28
# SNB-19 = system: SNB-19
# U-251 = system: U-251
# OVCAR-3 = system: OVCAR-3
# A498 = system: A498
# MCF7 = system: MCF7
SMILES,GI50 (786-0),GI50 (BT-549),GI50 (EKVX),GI50 (HCT-116),GI50 (HCT-15),GI50 (HOP-92),GI50 (Hs-578T),GI50 (K562),GI50 (KM12),GI50 (NCI-H522),GI50 (OVCAR-5),GI50 (PC-3),GI50 (RPMI-8226),GI50 (RXF 393),GI50 (SK-MEL-28),GI50 (SNB-19),GI50 (U-251),GI50 (OVCAR-3),GI50 (A498),GI50 (MCF7)
COC(=O)C(CC12CC3CC(CC(C3)C1)C2)NC(=O)C(N)CC(=O)O (stereo unspecified),> 100 µM (inactive),> 100 µM (inactive),> 100 µM (inactive),> 100 µM (inactive),> 100 µM,> 100 µM (inactive),> 100 µM (inactive),> 100 µM (inactive),> 100 µM (inactive),> 100 µM (inactive),> 100 µM (inactive),> 100 µM (inactive),> 100 µM (inactive),> 100 µM (inactive),> 100 µM (inactive),> 100 µM (inactive),> 100 µM (inactive),,,
NC(=S)NS(=O)(=O)c1ccc(Cl)cc1Cl,> 100 µM (inactive),> 100 µM (inactive),> 100 µM (inactive),> 100 µM (inactive),> 100 µM,> 100 µM (inactive),> 100 µM (inactive),> 100 µM (inactive),> 100 µM (inactive),> 100 µM (inactive),> 100 µM (inactive),> 100 µM (inactive),> 100 µM (inactive),> 100 µM (inactive),> 100 µM (inactive),> 100 µM (inactive),> 100 µM (inactive),> 100 µM (inactive),,
CC(C(=O)O)C1Nc2ccccc2NC1=O (stereo unspecified),> 100 µM (inactive),> 100 µM (inactive),> 100 µM (inactive),> 100 µM (inactive),> 100 µM,> 100 µM (inactive),> 100 µM (inactive),> 100 µM (inactive),> 100 µM (inactive),,> 100 µM (inactive),> 100 µM (inactive),37.4 µM (inactive),> 100 µM (inactive),> 100 µM (inactive),> 100 µM (inactive),> 100 µM (inactive),> 100 µM (inactive),> 100 µM (inactive),> 100 µM (inactive)
OCC1OC(OCC(O)C(O)C(O)C(/C=N/Nc2ccccc2)=N/Nc2ccccc2)C(O)C(O)C1O (stereo unspecified),> 100 µM (inactive),> 100 µM (inactive),> 100 µM (inactive),> 100 µM (inactive),> 100 µM,34.8 µM (inactive),> 100 µM (inactive),,> 100 µM (inactive),,> 100 µM (inactive),> 100 µM (inactive),> 100 µM (inactive),,> 100 µM (inactive),> 100 µM (inactive),> 100 µM (inactive),> 100 µM (inactive),,63.1 µM (inactive)
O=C(O)CSC(CC(=O)c1ccc(Cl)cc1)c1ccc(Cl)cc1 (stereo unspecified),21.8 µM (inactive),29.9 µM (inactive),41 µM (inactive),5.77 µM (inactive),22.1 µM,25.8 µM (inactive),34.6 µM (inactive),32.1 µM (inactive),8.07 µM (inactive),14.7 µM (inactive),> 100 µM (inactive),37.4 µM (inactive),6.95 µM (inactive),,,42 µM (inactive),29 µM (inactive),20.7 µM (inactive),41.6 µM (inactive),22.2 µM (inactive)
[O-]c1c[n+](-c2ccccc2)no1,> 100 µM (inactive),> 100 µM (inactive),> 100 µM (inactive),> 100 µM (inactive),> 100 µM,> 100 µM (inactive),> 100 µM (inactive),> 100 µM (inactive),> 100 µM (inactive),,> 100 µM (inactive),> 100 µM (inactive),> 100 µM (inactive),> 100 µM (inactive),> 100 µM (inactive),> 100 µM (inactive),> 100 µM (inactive),> 100 µM (inactive),> 100 µM (inactive),> 100 µM (inactive)
Cc1cc(S(N)(=O)=O)c(S/C(=N\Nc2ccc([N+](=O)[O-])cc2)c2ccc(Cl)cc2)cc1Cl,2.64 µM (inactive),4.65 µM (inactive),6.19 µM (inactive),3.15 µM (inactive),4.3 µM,2.26 µM (inactive),4.88 µM (inactive),3.41 µM (inactive),1.94 µM (inactive),3.21 µM (inactive),2.64 µM (inactive),,2.58 µM (inactive),1.75 µM (inactive),0.573 µM (active),3.33 µM (inactive),2.25 µM (inactive),1.74 µM (inactive),4.32 µM (inactive),2.01 µM (inactive)
CCOc1cc(C2CC(c3ccc(NS(=O)(=O)c4cc([N+](=O)[O-])ccc4C)cc3)=NN2c2ccc([N+](=O)[O-])cc2[N+](=O)[O-])ccc1O (stereo unspecified),2.58 µM (inactive),18 µM (inactive),4.71 µM (inactive),8.65 µM (inactive),19.3 µM,10.4 µM (inactive),12.9 µM (inactive),21.3 µM (inactive),11 µM (inactive),10.4 µM (inactive),23.4 µM (inactive),20 µM (inactive),11.3 µM (inactive),7.11 µM (inactive),8 µM (inactive),7.46 µM (inactive),9.48 µM (inactive),11.4 µM (inactive),,7.46 µM (inactive)
Cc1ccc(O)c(/N=N\c2c(O)cc(S(=O)(=O)O)c3ccccc23)c1,57.5 µM (inactive),81.7 µM (inactive),96.4 µM (inactive),25.5 µM (inactive),43.6 µM,> 100 µM (inactive),> 100 µM (inactive),32.2 µM (inactive),21.8 µM (inactive),,45.6 µM (inactive),33.7 µM (inactive),37.9 µM (inactive),> 100 µM (inactive),45.3 µM (inactive),,61.8 µM (inactive),22.5 µM (inactive),,41.1 µM (inactive)
COC(=O)/C=C/N1CC1,> 10 µM (inactive),> 10 µM (inactive),> 10 µM (inactive),> 10 µM (inactive),> 10 µM,,> 10 µM (inactive),> 10 µM (inactive),> 10 µM (inactive),> 10 µM (inactive),4.76 µM (inactive),3.12 µM (inactive),> 10 µM (inactive),,> 10 µM (inactive),8.15 µM (inactive),5.41 µM (inactive),5.81 µM (inactive),,> 10 µM (inactive)
COC1=CC2C(c3cc4ccccc4n3S(=O)(=O)c3ccccc3)CC1CN2C(=O)OCc1ccccc1 (stereo unspecified),33.9 µM (inactive),25 µM (inactive),18.9 µM (inactive),28.2 µM (inactive),31.1 µM,,23.8 µM (inactive),33.3 µM (inactive),26.9 µM (inactive),18 µM (inactive),18.2 µM (inactive),29.3 µM (inactive),17.2 µM (inactive),14.4 µM (inactive),,,37.3 µM (inactive),19.5 µM (inactive),,39.9 µM (inactive)
Cc1nc(C(N)=S)sc1C(/C=C/c1ccc(Cl)c(Cl)c1)=N/NC(C)(C)C,> 100 µM (inactive),> 100 µM (inactive),> 100 µM (inactive),> 100 µM (inactive),> 100 µM,> 100 µM (inactive),> 100 µM (inactive),,> 100 µM (inactive),75.3 µM (inactive),,> 100 µM (inactive),,> 100 µM (inactive),> 100 µM (inactive),> 100 µM (inactive),> 100 µM (inactive),,,> 100 µM (inactive)
CCOC(=O)CCC(NC(=O)c1ccc(Nc2nc3ccc(C(F)(F)F)cc3nc2-c2ccccc2)cc1)C(=O)OCC (stereo unspecified),> 100 µM (inactive),> 100 µM (inactive),> 100 µM (inactive),> 100 µM (inactive),> 100 µM,23.9 µM (inactive),24.4 µM (inactive),44.2 µM (inactive),> 94 µM (inactive),22.1 µM (inactive),> 92.9 µM (inactive),,> 84.1 µM (inactive),49 µM (inactive),40.3 µM (inactive),> 100 µM (inactive),> 100 µM (inactive),26.6 µM (inactive),,40.8 µM (inactive)
O=C1c2cccnc2S(=O)(=O)N1c1ccc([N+](=O)[O-])cc1,> 100 µM (inactive),> 100 µM (inactive),> 100 µM (inactive),> 100 µM (inactive),> 100 µM,> 100 µM (inactive),64 µM (inactive),,> 100 µM (inactive),24.9 µM (inactive),> 100 µM (inactive),> 100 µM (inactive),57 µM (inactive),,> 100 µM (inactive),> 100 µM (inactive),> 100 µM (inactive),> 100 µM (inactive),> 100 µM (inactive),> 100 µM (inactive)
c1ccc2sc(C3(N4CCCCCC4)CCCCC3)cc2c1,19.1 µM (inactive),25 µM (inactive),22.8 µM (inactive),20.3 µM (inactive),22.3 µM,17.6 µM (inactive),22.4 µM (inactive),16.7 µM (inactive),16.1 µM (inactive),21.1 µM (inactive),17.8 µM (inactive),,,17.7 µM (inactive),26.1 µM (inactive),18.7 µM (inactive),19.2 µM (inactive),16.3 µM (inactive),18.1 µM (inactive),17.8 µM (inactive)
O=C(Nc1ccc(Cl)cc1)c1cc(S(=O)(=O)Nc2n[nH]c(=O)n2-c2ccccc2)c(S)cc1Cl,> 100 µM (inactive),> 100 µM (inactive),> 100 µM (inactive),> 100 µM (inactive),> 100 µM,> 100 µM (inactive),> 100 µM (inactive),,> 100 µM (inactive),,> 100 µM (inactive),,> 100 µM (inactive),> 100 µM (inactive),> 100 µM (inactive),> 100 µM (inactive),> 100 µM (inactive),6.28 µM (inactive),> 100 µM (inactive),> 100 µM (inactive)

# From ChEMBL document CHEMBL1201862, “PubChem BioAssay data set” (2004)
